Like-named read-outs stand apart in the source and are kept apart here. Positions of bridges follow the written chain, without caps; N, C: chain ends. Non-standard residues stand in square brackets, D forms with d. Residues, ends and D or L forms follow the SMILES beside them. No end group written: not given here.
Legend:
THP-1 cells = assay: Agonist activity: agent in the lower compartment of the THP-1 migration chamber; details: agent in place of chemokine
[1] = tested on: MIP1α induced human monocyte migration; assay: Human monocyte migration, MIP1α; format: cell-based; details: n.s. = no statistically significant inhibition
Experimental: (§1) Agents may also be screened in a chemotactic assay which employs human neutrophils, eosinophils, mast cells, basophils, platelets, lymphocytes or monocytes. For monocytes, 9 mls of fresh blood are transferred to a tube containing 1 ml of 3.8% sodium citrate, and left at room temperature for 15 minutes. Five mls of this anti-coagulated blood are carefully layered over 3.5 ml Polymorphprep® (Nycomed Pharma, Oslo), and centrifuged at 500 g for 35 minutes per the manufacturer's instructions. The top band at the sample/medium interface contains monocytes. The monocytes are carefully removed with a glass pipette, and reconstituted to the original volume (5 ml). The cells are washed with PBS plus 10% fetal calf serum, and centrifuged at 400 g for 10 minutes. The washing step is repeated three times before the cells are counted. Cells are resuspended at 1×10^7 cells/ml in RPMI-1640+10% fetal calf serum (FCS). The monocytes are cultured for two days at 37° C. in a humidified atmosphere of 5% CO2.
(§2) On day 2, the cells are counted, spun down, and reconstituted to 1×10^7 cells/ml in Gey's balanced salt solution+1 mg/ml bovine serum albumin (BSA). […]

[2] = tested on: IL8 induced human monocyte migration; assay: Human monocyte migration, IL8; format: cell-based; details: n.s. = no statistically significant inhibition
Experimental: as §1, §2

HIV (IIIb), T-tropic = details: 100 μM peptide; for effect on HIV infection / replication in Jurkat cells, in words: reverse transcriptase assay; for inhibition of reverse transcriptase activity: Jurkat cells, HIV IIIb

CC[C@@H](C)[C@H]1NC(=O)[C@@H](CCC(N)=O)NC(=O)[C@H](N)CSSC[C@H](C(N)=O)NC(=O)[C@@H](CC(C)C)NC(=O)[C@@H](CC(=O)O)NC(=O)[C@H]2CCCN2C(=O)[C@@H](CCCCN)NC(=O)[C@@H](CCC(N)=O)NC(=O)[C@@H](CCCCN)NC(=O)[C@@H](Cc2c[nH]c3ccccc23)NC1=O (H-[dC][dQ][dI][dW][dK][dQ][dK][dP][dD][dL][dC]-NH2; disulfide 1-11; N-terminus assumed)
agonist activity (THP-1 cells): No agonist activity was detected in the concentration range where inhibitory effects on chemokine-induced migration are seen (<1 μM)
serum TNF-α in LPS treated mice, in words (LPS-induced serum TNF-α; i.v. loading dose and s.c. bolus 30 minutes before 583 μg LPS i.p.): dose dependent decrease

C=CCCCCCCCCC(=O)N[C@H]1CCC(=O)NC1=O [A-I (NR58.4), [3S]-3-(undec-10-enoylamino)piperidine-2,6-dione]
local tolerance at the site of injection (LPS-induced serum TNF-α; mouse, in vivo, sc): irritation was noted at the site of injection

EICADPKQKWVQ [peptide 3(1-12)[MCP-1]]
% inhibition at 100 μM versus MIP1α, human monocyte migration [1]: 120%
% inhibition at 100 μM versus IL8, human monocyte migration [2]: 106%
effect on HIV infection / replication in Jurkat cells, in words (HIV (IIIb), T-tropic; listed as Peptide 3(1-12)[MCP-1]): effective inhibitor of Jurkat cell infection by HIV
effect on HIV infection / replication in Jurkat cells, in words (HIV (IIIb), T-tropic; listed as peptide 3): but not peptide 3 (100 μM) markedly inhibited virus replication

SYRRITSSKCPKEAV [peptide 2(1-15)[MCP-1]]
% inhibition at 100 μM versus MIP1α, human monocyte migration [1]: n.s.
% inhibition at 100 μM versus IL8, human monocyte migration [2]: n.s.
inhibition of reverse transcriptase activity (HIV (IIIb), T-tropic): 75±10%
inhibition of reverse transcriptase activity (HIV (IIIb), T-tropic; listed as Peptide 2): 75%
inhibition of reverse transcriptase activity (HIV (IIIb), T-tropic; listed as peptide 2): 75%
effect on HIV infection / replication in Jurkat cells, in words (HIV (IIIb), T-tropic): more effective than peptide 3(1-12)[MCP-1] (SEQ ID NO:1), and as effective as SDF1α
agonist activity (THP-1 cells): weak agonist properties
